Reference: patent EP4756027A1, “DOUBLE-STRANDED RIBONUCLEIC ACID TARGETING PD-L1” (Chia Tai Tianqing Pharmaceutical Group Co., Ltd., priority 2023, dated 2025)

Columns and labels:
PD-L1 mRNA [1] = assay: Activity evaluation A in human PD-L1 model mice (liver PD-L1 mRNA, qPCR); format: in vivo; settings: liver tissue, 10 mg/kg subcutaneous single dose, 14 days after treatment, vs PBS group
Description: (§1) Male human PD-L1 mice (purchased from Shanghai Model Organisms Center, Inc.) aged 6-8 weeks were randomized by weight, with 3 mice in each group. The groups were designated as a PBS group and various sample groups (dsRNA ligand conjugate of the present application).
(§2) Each sample group (dsRNA ligand conjugate of the present application) received a 1 mg/mL solution prepared in 1× PBS (pH 7.4).
Each mouse in the PBS group was subcutaneously injected with 10 mL/kg body weight of 1× PBS (pH 7.4), and each mouse in the sample groups (dsRNA ligand conjugate of the present application) was subcutaneously injected with the corresponding solution prepared as described above. The administration volume for each animal was 10 mL/kg body weight, and the administration dose was 10 mg/kg body weight. The day of the first dose was designated as day 0. All mice were sacrificed 14 days after the treatment, and the liver was collected and preserved in 1.5 mL sterile EP tubes containing 1 mL of animal tissue RNA stabilizing solution (Shanghai Beyotime Biotech Inc., Cat. No. R0118). After being preserved in a refrigerator at 4 °C for 24 h, the liver was transferred to -80 °C for storage. […]
For each reverse transcription reaction system, the cDNA-containing solution described above was taken as the qPCR template, and 20 µL of the qPCR reaction system was prepared using the reagent provided by the ChamQ SYBRqPCR Master Mix kit (Vazyme Biotech Co., Ltd., Cat. No. Q311). […] The qPCR reaction system was placed on a LightCycler 480 fluorescent quantitative PCR system and amplified using the three-step method. […] The real-time fluorescent quantitative PCR system separately acquired the dissolution curves of the target gene PD-L1 and the internal reference gene GAPDH in the PCR amplification products to give the Ct values of the target gene PD-L1 and the internal reference gene GAPDH. […]

PD-L1 mRNA [2] = assay: Activity evaluation B in human PD-L1 model mice (liver PD-L1 mRNA, qPCR); format: in vivo; settings: liver tissue, 10 mg/kg subcutaneous; for PD-L1 expression inhibition rate (%), Day 14 after treatment, Avg: day 14, vs PBS group; for PD-L1 expression inhibition rate (%), Day 28 after treatment, Avg: day 28, vs PBS group
Description: as §1, §2
Each mouse in the PBS group was subcutaneously injected with 10 mL/kg body weight of 1× PBS (pH 7.4), and each mouse in the sample groups (dsRNA ligand conjugate of the present application) was subcutaneously injected with the corresponding solution prepared as described above. The administration volume for each animal was 10 mL/kg body weight, and the administration dose was 10 mg/kg body weight. The day of the first dose was designated as day 0. The liver was collected on days 14 and 28 after the treatment and preserved in 1.5 mL sterile EP tubes containing 1 mL of animal tissue RNA stabilizing solution (Shanghai Beyotime Biotech Inc., Cat. No. R0118). After being preserved in a refrigerator at 4 °C for 24 h, the liver was transferred to -80 °C for storage. Then, the liver tissue of each mouse was homogenized using a tissue homogenizer, and the total RNA of the liver tissue of each mouse was separately extracted using the TaKaRa MiniBEST Universal RNA Extraction Kit (TAKARA, Cat. No. 9767) according to the procedures for total RNA extraction in the instructions.
The procedures of reverse transcription to synthesize cDNA and fluorescence quantitative PCR, the primers, and the calculation of inhibition rate are shown in Experimental Example 3.

Substance: M01L01: dsRNA ligand conjugate; modified sense SEQ ID NO 31 with L01 ligand (GalNAc), antisense SEQ ID NO 32 (sense AGCAATATGACAATTGAATGA; antisense TCATTCAATTGTCATATTGCTAC; 2'-O-methyl and 2'-fluoro modified, full pattern not given here, GalNAc L01 on sense)
- PD-L1 expression inhibition rate (%), Avg (PD-L1 mRNA [1]): 59.3%

Substance: M02L01: dsRNA ligand conjugate; modified sense SEQ ID NO 33 with L01 ligand (GalNAc), antisense SEQ ID NO 34 (sense ATTTACTGTCACGGTTCCCAA; antisense TTGGGAACCGTGACAGTAATAGC; 2'-O-methyl and 2'-fluoro modified, full pattern not given here, GalNAc L01 on sense)
- PD-L1 expression inhibition rate (%), Avg (PD-L1 mRNA [1]): 67.1%

Substance: M03L01: dsRNA ligand conjugate; modified sense SEQ ID NO 35 with L01 ligand (GalNAc), antisense SEQ ID NO 36 (sense CTATTTATTTTGAGTCTGT; antisense ACAGACTCAAAATAAATAGGA; 2'-O-methyl and 2'-fluoro modified, full pattern not given here, GalNAc L01 on sense)
- PD-L1 expression inhibition rate (%), Avg (PD-L1 mRNA [1]): 78.2%

Substance: M07L01: dsRNA ligand conjugate; modified sense SEQ ID NO 43 with L01 ligand (GalNAc), antisense SEQ ID NO 44 (sense AATGAAAGGACTCACTTGGTA; antisense TACCAAGTGAGTCCTTTCATTTG; 2'-O-methyl and 2'-fluoro modified, full pattern not given here, GalNAc L01 on sense)
- PD-L1 expression inhibition rate (%), Day 14 after treatment, Avg (PD-L1 mRNA [2]): 49.0%

Substance: M08L01: dsRNA ligand conjugate; modified sense SEQ ID NO 45 with L01 ligand (GalNAc), antisense SEQ ID NO 46 (sense GCTGCATGATCAGCTATGGTA; antisense TACCATAGCTGATCATGCAGCGG; 2'-O-methyl and 2'-fluoro modified, full pattern not given here, GalNAc L01 on sense)
- PD-L1 expression inhibition rate (%), Day 14 after treatment, Avg (PD-L1 mRNA [2]): 26.7%

Substance: M10L01: dsRNA ligand conjugate; modified sense SEQ ID NO 49 with L01 ligand (GalNAc), antisense SEQ ID NO 50 (sense ATTGGTCATCCCAGAACTACA; antisense TGTAGTTCTGGGATGACCAATTC; 2'-O-methyl and 2'-fluoro modified, full pattern not given here, GalNAc L01 on sense)
- PD-L1 expression inhibition rate (%), Day 14 after treatment, Avg (PD-L1 mRNA [2]): 64.6%
- PD-L1 expression inhibition rate (%), Day 28 after treatment, Avg (PD-L1 mRNA [2]): 47.0%

Substance: M11L01: dsRNA ligand conjugate; modified sense SEQ ID NO 51 with L01 ligand (GalNAc), antisense SEQ ID NO 52 (sense TATTTATTTTGAGTCTGTG; antisense CACAGACTCAAAATAAATAGG; 2'-O-methyl and 2'-fluoro modified, full pattern not given here, GalNAc L01 on sense)
- PD-L1 expression inhibition rate (%), Day 14 after treatment, Avg (PD-L1 mRNA [2]): 66.7%
- PD-L1 expression inhibition rate (%), Day 28 after treatment, Avg (PD-L1 mRNA [2]): 39.2%

Substance: M12L01: dsRNA ligand conjugate; modified sense SEQ ID NO 55 with L01 ligand (GalNAc), antisense SEQ ID NO 56 (sense ATTTACTGTCACGGTTCCCAA; antisense TTGGGAACCGTGACAGTAAATGC; 2'-O-methyl and 2'-fluoro modified, full pattern not given here, GalNAc L01 on sense)
- PD-L1 expression inhibition rate (%), Day 14 after treatment, Avg (PD-L1 mRNA [2]): 78.6%
- PD-L1 expression inhibition rate (%), Day 28 after treatment, Avg (PD-L1 mRNA [2]): 50%
